{
  "source": "patent US20070218150A1",
  "about": "“Active Oxygen Scavenging Agent and Moisturizing Agent Containing Wild Watermelon Extract” (priority 2004, published 2007)",
  "experiment": "active oxygen (hydroxyl radical) scavenging, competitive reaction analysis using salicylic acid oxidation as an index",
  "type": "biochemical",
  "conditions": "50 mg/l of citrulline solution; 25 degrees, 90 minutes, pH 7.4",
  "procedure": "The active oxygen scavenging ability of the wild watermelon fruit extract is assayed by competitive reaction analysis using salicylic acid oxidation as an index. Specifically, 2 mM salicylic acid and the wild watermelon fruit extract of various concentrations are dissolved in 50 mM phosphate buffer (pH 7.4). After that, by adding 0.6 mM of hydrogen peroxide, 0.15 mM of FeEDTA and 0.26 mM of ascorbic acid, hydroxyl radical is generated, and reacted at 25 degrees for 90 minutes. Quantitation of dihydroxyl benzoic acid (DHBA) generated by salicylic acid oxidation followed the method as set forth in the literature (Smirnofff and Cumbes (1989) Phytochemistry, 28: 1057-1060.)",
  "data": [
    {"smiles": "NC(=O)NCCC[C@H](N)C(=O)O", "note": "[citrulline]", "values": [
      {"measurement": "inhibition of salicylic acid oxidation", "result": 6, "unit": "%"}
    ]}
  ]
}
